According to patent publication US11021470B2, “2-substituted quinazoline compounds comprising a substituted heterocyclic group and methods of use thereof” (Araxes Pharma LLC, priority 2015, dated 2021):

Biological target: T1, KRAS G12C 1-169, his-tagged protein, GDP-loaded (Homo sapiens, UniProt P01116, G12C)
T1 construct: KRAS G12C 1-169, his-tagged protein, GDP-loaded
Assay: KRAS G12C covalent binding (% modification) by mass spectrometry, ten or three minute incubation
Outline: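 GDP-loaded protein in 20 mM Hepes, 150 mM NaCl, 1 mM MgCl2 was incubated with compound (final 100, 30 or 10 μM; 2% DMSO) at room temperature, then quenched with formic acid. Intact-protein LC-MS with charge-envelope deconvolution gave masses and intensities of modified and unmodified species.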

[1] = covalent binding to KRAS G12C, % modification after a three minute incubation period
[2] = covalent binding to KRAS G12C after a ten minute incubation period

Structure (SMILES): C=CC(=O)N1C[C@H](C)N(c2nc(OCCn3ccccc3=O)nc3c(F)c(-c4c(O)cccc4F)c(Cl)cc23)C[C@H]1C (atropisomer, axis not shown) [Compound 265, 1-(2-(4-((2S,5R)-4-acryloyl-2,5-dimethylpiperazin-1-yl)-6-chloro-8-fluoro-7-((S)-2-fluoro-6-hydroxyphenyl)quinazolin-2-yloxy)ethyl)pyridin-2(1H)-one]
- Binding % [1]: +++ (+++ indicates binding activity greater than 90%)

Structure (SMILES): C=CC(=O)N1CCN(c2nc(OCCc3ncccn3)nc3c(F)c(-c4c(O)cccc4F)c(Cl)cc23)C[C@H]1C (atropisomer, axis not shown) [Compound 267, 1-((R)-4-(6-chloro-8-fluoro-7-((R)-2-fluoro-6-hydroxyphenyl)-2-(2-(pyrimidin-2-yl)ethoxy)quinazolin-4-yl)-2-methylpiperazin-1-yl)prop-2-en-1-one]
- Binding % [1]: + (+ indicates binding activity greater than 0% and up to 50%)

Structure (SMILES): C=CC(=O)N1C[C@H](C)N(c2nc(N3CC(N(C)C)C3)nc3c(F)c(-c4c(O)cccc4F)c(Cl)cc23)C[C@H]1C [Compound 24, 1-((2R,5S)-4-(6-chloro-2-(3-(dimethylamino)azetidin-1-yl)-8-fluoro-7-(2-fluoro-6-hydroxyphenyl)quinazolin-4-yl)-2,5-dimethylpiperazin-1-yl)prop-2-en-1-one]
- Binding % [2]: ++ (++ indicates binding activity from 50 to 90%)

Structure (SMILES): C=CC(=O)N1C[C@H](C)N(c2nc(OCCn3ccnc3C#N)nc3c(F)c(-c4c(C)ccc5[nH]ncc45)c(Cl)cc23)C[C@H]1C [Compound 279, 1-(2-((4-((2S,5R)-4-acryloyl-2,5-dimethylpiperazin-1-yl)-6-chloro-8-fluoro-7-(5-methyl-1H-indazol-4-yl)quinazolin-2-yl)oxy)ethyl)-1H-imidazole-2-carbonitrile]
- Binding % [1]: ++ (++ indicates binding activity from 50 to 90%)

Structure (SMILES): C=CC(=O)N1C[C@H](C)N(c2nc(OCCn3ccnc3C3CC3)nc3c(F)c(-c4c(O)cccc4F)c(Cl)cc23)C[C@H]1C (atropisomer, axis not shown) [Compound 275, 1-((2R,5S)-4-(6-chloro-2-(2-(2-cyclopropyl-1H-imidazol-1-yl)ethoxy)-8-fluoro-7-((S)-2-fluoro-6-hydroxyphenyl)quinazolin-4-yl)-2,5-dimethylpiperazin-1-yl)prop-2-en-1-one]
- Binding % [1]: +++ (+++ indicates binding activity greater than 90%)

Structure (SMILES): C=CC(=O)N1C[C@H](C)N(c2nc(N3CC(N(C)C)C3)nc3c(F)c(-c4c(C)ccc5[nH]nc(N)c45)c(Cl)cc23)C[C@H]1C [Compound 298, 1-((2R,5S)-4-(7-(3-amino-5-methyl-1H-indazol-4-yl)-6-chloro-2-(3-(dimethylamino)azetidin-1-yl)-8-fluoroquinazolin-4-yl)-2,5-dimethylpiperazin-1-yl)prop-2-en-1-one]
- Binding % [1]: ++ (++ indicates binding activity from 50 to 90%)

Structure (SMILES): C=CC(=O)N1C[C@H](C)N(c2nc(N3CC(N(C)C)C3)nc3c(F)c(-c4c(C)ccc5[nH]nc(C#N)c45)c(Cl)cc23)C[C@H]1C [Compound 292, 4-(4-((2S,5R)-4-acryloyl-2,5-dimethylpiperazin-1-yl)-6-chloro-2-(3-(dimethylamino)azetidin-1-yl)-8-fluoroquinazolin-7-yl)-5-methyl-1H-indazole-3-carbonitrile]
- Binding % [1]: ++ (++ indicates binding activity from 50 to 90%)

Structure (SMILES): [2H]C([2H])([2H])N(C1CN(c2nc(N3C[C@@H](C)N(C(=O)C=C)C[C@@H]3C)c3cc(Cl)c(-c4c(C)ccc5[nH]ncc45)c(F)c3n2)C1)C([2H])([2H])[2H] (atropisomer, axis not shown) [Compound 226, 1-((2R,5S)-4-(6-chloro-2-(3-(bis(tridueteromethyl)amino)azetidin-1-yl)-8-fluoro-7-((R)-5-methyl-1H-indazol-4-yl)quinazolin-4-yl)-2,5-dimethylpiperazin-1-yl)prop-2-en-1-one]
- Binding % [1]: +++ (+++ indicates binding activity greater than 90%)

Structure (SMILES): C=CC(=O)N1C[C@H](C)N(c2nc(N3CC(N(C)C)C3)nc3c(F)c(-c4c(F)ccc(Cl)c4O)c(Cl)cc23)C[C@H]1C [Compound 260, 1-((2R,5S)-4-(6-chloro-7-(3-chloro-6-fluoro-2-hydroxyphenyl)-2-(3-(dimethylamino)azetidin-1-yl)-8-fluoroquinazolin-4-yl)-2,5-dimethylpiperazin-1-yl)prop-2-en-1-one]
- Binding % [1]: ++ (++ indicates binding activity from 50 to 90%)

Structure (SMILES): C=CC(=O)N1CCN(c2nc(N3CC(N(C)C)C3)nc3c(F)c(-c4c(O)cccc4F)c(C(F)(F)F)cc23)C[C@H]1C (atropisomer, axis not shown) [Compound 272, 1-((R)-4-(2-(3-(dimethylamino)azetidin-1-yl)-8-fluoro-7-((R)-2-fluoro-6-hydroxyphenyl)-6-(trifluoromethyl)quinazolin-4-yl)-2-methylpiperazin-1-yl)prop-2-en-1-one]
- Binding % [1]: +++ (+++ indicates binding activity greater than 90%)

Structure (SMILES): C=CC(=O)N1C[C@H](C)N(c2nc(OCCCN3CC(F)(F)C3)nc3c(F)c(-c4cc(O)cc5ccccc45)c(Cl)cc23)C[C@H]1C [Compound 247, 1-((2R,5S)-4-(6-chloro-2-(3-(3,3-difluoroazetidin-1-yl)propoxy)-8-fluoro-7-(3-hydroxynaphthalen-1-yl)quinazolin-4-yl)-2,5-dimethylpiperazin-1-yl)prop-2-en-1-one]
- Binding % [1]: + (+ indicates binding activity greater than 0% and up to 50%)

Structure (SMILES): C=CC(=O)N1C[C@H](C)N(c2nc(N3CC(N(C)C)C3)nc3c(F)c(-c4c(O)cccc4F)c(C(F)(F)F)cc23)C[C@H]1C [Compound 206, 1-((2R,5S)-4-(2-(3-(dimethylamino)azetidin-1-yl)-8-fluoro-7-(2-fluoro-6-hydroxyphenyl)-6-(trifluoromethyl)quinazolin-4-yl)-2,5-dimethylpiperazin-1-yl)prop-2-en-1-one]
- Binding % [1]: +++ (+++ indicates binding activity greater than 90%)

Structure (SMILES): C=CC(=O)N1C[C@H](C)N(c2nc(N3CC(N(C)C)C3)nc3c(F)c(-c4c[nH]c5ccccc45)c(Cl)cc23)C[C@H]1C [Compound 285, 1-((2R,5S)-4-(6-chloro-2-(3-(dimethylamino)azetidin-1-yl)-8-fluoro-7-(1H-indol-3-yl)quinazolin-4-yl)-2,5-dimethylpiperazin-1-yl)prop-2-en-1-one]
- Binding % [1]: + (+ indicates binding activity greater than 0% and up to 50%)

Structure (SMILES): C=CC(=O)N1C[C@H](C)N(c2nc(OCCn3cnnc3)nc3c(F)c(-c4c(O)cccc4F)c(Cl)cc23)C[C@H]1C (atropisomer, axis not shown) [Compound 280, 1-((2R,5S)-4-(2-(2-(4H-1,2,4-triazol-4-yl)ethoxy)-6-chloro-8-fluoro-7-((S)-2-fluoro-6-hydroxyphenyl)quinazolin-4-yl)-2,5-dimethylpiperazin-1-yl)prop-2-en-1-one]
- Binding % [1]: +++ (+++ indicates binding activity greater than 90%)

Structure (SMILES): C=CC(=O)N1C[C@H](C)N(c2nc(OCCN(CC)CC)nc3c(F)c(-c4c(O)cccc4F)c(Cl)cc23)C[C@H]1C (atropisomer, axis not shown) [Compound 74, 1-((2R,5S)-4-((R)-6-chloro-2-(2-(diethylamino)ethoxy)-8-fluoro-7-(2-fluoro-6-hydroxyphenyl)quinazolin-4-yl)-2,5-dimethylpiperazin-1-yl)prop-2-en-1-one]
- Binding % [2]: ++ (++ indicates binding activity from 50 to 90%)

Structure (SMILES): C=CC(=O)N1C[C@H](C)N(c2nc(N3CC(N(C)C)C3)nc3c(F)c(-c4cc(O)cc5ccccc45)c(C(F)(F)F)cc23)C[C@H]1C [Compound 178, 1-((2R,5S)-4-(2-(3-(dimethylamino)azetidin-1-yl)-8-fluoro-7-(3-hydroxynaphthalen-1-yl)-6-(trifluoromethyl)quinazolin-4-yl)-2,5-dimethylpiperazin-1-yl)prop-2-en-1-one]
- Binding % [1]: +++ (+++ indicates binding activity greater than 90%)

Structure (SMILES): C=CC(=O)N1C[C@H](C)N(c2nc(OCC(C)(C)C#N)nc3c(F)c(-c4c(O)cccc4F)c(Cl)cc23)C[C@H]1C (atropisomer, axis not shown) [Compound 282, 3-((4-((2S,5R)-4-acryloyl-2,5-dimethylpiperazin-1-yl)-6-chloro-8-fluoro-7-((S)-2-fluoro-6-hydroxyphenyl)quinazolin-2-yl)oxy)-2,2-dimethylpropanenitrile]
- Binding % [1]: ++ (++ indicates binding activity from 50 to 90%)

Structure (SMILES): [2H]C([2H])([2H])N(C1CN(c2nc(N3C[C@@H](C)N(C(=O)C=C)C[C@@H]3C)c3cc(Cl)c(-c4c(O)cccc4F)c(F)c3n2)C1)C([2H])([2H])[2H] [Compound 196, 1-((2R,5S)-4-(2-(3-(bis(trideuteromethyl)amino)azetidin-1-yl)-6-chloro-8-fluoro-7-(2-fluoro-6-hydroxyphenyl)quinazolin-4-yl)-2,5-dimethylpiperazin-1-yl)prop-2-en-1-one]
- Binding % [1]: +++ (+++ indicates binding activity greater than 90%)

Structure (SMILES): C=CC(=O)N1C[C@H](C)N(c2nc(OCCn3ccc4cccnc43)nc3c(F)c(-c4c(O)cccc4F)c(Cl)cc23)C[C@H]1C [Compound 263, 1-((2R,5S)-4-(2-(2-(1H-pyrrolo[2,3-b]pyridin-1-yl)ethoxy)-6-chloro-8-fluoro-7-(2-fluoro-6-hydroxyphenyl)quinazolin-4-yl)-2,5-dimethylpiperazin-1-yl)prop-2-en-1-one]
- Binding % [1]: + (+ indicates binding activity greater than 0% and up to 50%)

Structure (SMILES): C=CC(=O)N1C[C@H](C)N(c2nc(OCCc3cncn3C)nc3c(F)c(-c4c(O)cccc4F)c(Cl)cc23)C[C@H]1C (atropisomer, axis not shown) [Compound 284, 1-((2R,5S)-4-(6-chloro-8-fluoro-7-((S)-2-fluoro-6-hydroxyphenyl)-2-(2-(1-methyl-1H-imidazol-5-yl)ethoxy)quinazolin-4-yl)-2,5-dimethylpiperazin-1-yl)prop-2-en-1-one]
- Binding % [1]: +++ (+++ indicates binding activity greater than 90%)
